Results from ChEMBL document CHEMBL1201862, “PubChem BioAssay data set” (2004).
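Five compound concentrations were applied to cells in 96-well plates for 48 hours; endpoints were derived by simple linear interpolation of the resulting dose-response curve. GI50 marks 50% less growth.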 Calls of active or inactive are those of the source. Rule as the data show it: active = GI50 up to about 1.1 µM and inactive = higher.

Legend:
Assay in all cases: growth of human tumour cells (NCI), 48 h
CAKI-1 = test system: CAKI-1
COLO 205 = test system: COLO 205
HCT-116 = test system: HCT-116
IGROV-1 = test system: IGROV-1
KM12 = test system: KM12
MDA-MB-435 = test system: MDA-MB-435
NCI-H226 = test system: NCI-H226
NCI-H23 = test system: NCI-H23
NCI-H460 = test system: NCI-H460
NCI/ADR-RES = test system: NCI/ADR-RES
RPMI-8226 = test system: RPMI-8226
SF-295 = test system: SF-295
SF-539 = test system: SF-539
SK-OV-3 = test system: SK-OV-3
SN12C = test system: SN12C
SNB-19 = test system: SNB-19
SNB-75 = test system: SNB-75
SW-620 = test system: SW-620
TK-10 = test system: TK-10
HL-60 = test system: HL-60

Row | SMILES | GI50 (CAKI-1) | GI50 (COLO 205) | GI50 (HCT-116) | GI50 (IGROV-1) | GI50 (KM12) | GI50 (MDA-MB-435) | GI50 (NCI-H226) | GI50 (NCI-H23) | GI50 (NCI-H460) | GI50 (NCI/ADR-RES) | GI50 (RPMI-8226) | GI50 (SF-295) | GI50 (SF-539) | GI50 (SK-OV-3) | GI50 (SN12C) | GI50 (SNB-19) | GI50 (SNB-75) | GI50 (SW-620) | GI50 (TK-10) | GI50 (HL-60)
1 | CN(C)CCCOc1nc2c(c(=O)n(C)c(=O)n2C)n1C.SC1=NC=NC2=NC=NC12 | 1.02 µM (active) | 4.3 µM (inactive) | 5.62 µM (inactive) | 5.93 µM (inactive) | 3.85 µM (inactive) | 1.7 µM (inactive) | 2.15 µM (inactive) | 6.71 µM (inactive) | 8.43 µM (inactive) | 4.32 µM (inactive) | 0.757 µM (active) | 2.22 µM (inactive) | 1.7 µM (inactive) | 23.9 µM (inactive) | 4.06 µM (inactive) | 88.5 µM (inactive) | 6.12 µM (inactive) | 4.45 µM (inactive) | 0.482 µM (active) | –
2 | O=C1c2cc(Cl)ccc2N=C(NCCCl)C2CSCN12 (stereo unspecified) | > 100 µM (inactive) | > 100 µM (inactive) | > 100 µM (inactive) | > 100 µM (inactive) | > 100 µM (inactive) | > 100 µM (inactive) | > 100 µM (inactive) | – | > 100 µM (inactive) | > 100 µM (inactive) | > 100 µM (inactive) | > 100 µM (inactive) | – | > 100 µM (inactive) | > 100 µM (inactive) | > 100 µM (inactive) | – | > 100 µM (inactive) | > 100 µM (inactive) | –
3 | c1ccc2c(c1)ccc1cc3cc(NCCCCNc4ccc5nc6c(ccc7ccccc76)cc5c4)ccc3nc12 | 2.01 µM (inactive) | 1.69 µM (inactive) | 0.176 µM (active) | 1.41 µM (inactive) | 0.236 µM (active) | 1.83 µM (inactive) | 1.73 µM (inactive) | 2 µM (inactive) | 0.231 µM (active) | 2.11 µM (inactive) | 0.323 µM (active) | 1.38 µM (inactive) | 1.35 µM (inactive) | 2.37 µM (inactive) | 1.41 µM (inactive) | 0.352 µM (active) | 1.91 µM (inactive) | 0.195 µM (active) | 1.64 µM (inactive) | –
4 | C/C(=N\Nc1nc2ccccc2s1)c1ccncn1 | 0.145 µM (active) | 0.126 µM (active) | 0.532 µM (active) | 0.485 µM (active) | 1.42 µM (inactive) | 2.69 µM (inactive) | 0.14 µM (active) | 0.56 µM (active) | 0.438 µM (active) | 0.351 µM (active) | 1 µM (active) | 3.31 µM (inactive) | 1.39 µM (inactive) | 1.74 µM (inactive) | 0.379 µM (active) | 3.02 µM (inactive) | 4.1 µM (inactive) | 0.229 µM (active) | – | –
5 | Clc1ccc2nc3c(c(-c4ccccc4)nn3-c3ccccc3)c(-c3ccccc3)c2c1 | – | > 100 µM (inactive) | > 100 µM (inactive) | > 100 µM (inactive) | > 100 µM (inactive) | > 100 µM (inactive) | > 100 µM (inactive) | > 100 µM (inactive) | > 100 µM (inactive) | > 100 µM (inactive) | > 100 µM (inactive) | > 100 µM (inactive) | – | > 100 µM (inactive) | > 100 µM (inactive) | > 100 µM (inactive) | > 100 µM (inactive) | > 100 µM (inactive) | > 100 µM (inactive) | > 100 µM (inactive)
6 | O=C1/C(=C\c2cccc(Oc3ccccc3)c2)SC(c2ccccc2)N1c1ccccc1Cl (stereo unspecified) | 34 µM (inactive) | 21.8 µM (inactive) | 14.9 µM (inactive) | – | 23 µM (inactive) | 23.3 µM (inactive) | 26.2 µM (inactive) | 17.5 µM (inactive) | 29.6 µM (inactive) | 27.9 µM (inactive) | 13 µM (inactive) | 33.8 µM (inactive) | 19.1 µM (inactive) | 25.4 µM (inactive) | 26 µM (inactive) | 24.4 µM (inactive) | – | 33.3 µM (inactive) | 34.8 µM (inactive) | 30.2 µM (inactive)
7 | CC(C)N1[C@@H]2CCCC[C@H]2N(C(C)C)P1(=O)C(=O)/C=C/c1ccccc1 | 2.54 µM (inactive) | 1.91 µM (inactive) | 1.96 µM (inactive) | 1.98 µM (inactive) | 3.23 µM (inactive) | 1.76 µM (inactive) | 3.52 µM (inactive) | 2.16 µM (inactive) | 2.97 µM (inactive) | 2.02 µM (inactive) | 2.49 µM (inactive) | 10.6 µM (inactive) | 1.82 µM (inactive) | – | 1.99 µM (inactive) | 5.52 µM (inactive) | – | 2.58 µM (inactive) | 3.51 µM (inactive) | 1.65 µM (inactive)
8 | Cc1c(C(=O)OCc2ccccc2)[n+]([O-])c2cc(Cl)c(Cl)cc2[n+]1[O-] | 13 µM (inactive) | 18.2 µM (inactive) | 14.2 µM (inactive) | 5.83 µM (inactive) | 10.5 µM (inactive) | 19.8 µM (inactive) | 5.77 µM (inactive) | 18.5 µM (inactive) | 14.2 µM (inactive) | 18.2 µM (inactive) | 6.46 µM (inactive) | 16.8 µM (inactive) | 22.5 µM (inactive) | 22.5 µM (inactive) | 18.1 µM (inactive) | 27 µM (inactive) | – | – | 18.7 µM (inactive) | 11.7 µM (inactive)
9 | O=C(CSCC(=O)N/N=C\c1cc(Br)cc(Br)c1O)N/N=C\c1cc(Br)cc(Br)c1O | 23.4 µM (inactive) | 33.7 µM (inactive) | 19.6 µM (inactive) | 16.6 µM (inactive) | 25.4 µM (inactive) | 40.9 µM (inactive) | 17.7 µM (inactive) | 48.4 µM (inactive) | 44.6 µM (inactive) | 29.4 µM (inactive) | – | 33.6 µM (inactive) | 20 µM (inactive) | 53.5 µM (inactive) | 27.8 µM (inactive) | 65.6 µM (inactive) | 24 µM (inactive) | 37 µM (inactive) | 15.6 µM (inactive) | –
10 | O=C1C2CCCCC2C(=O)N1n1c(Cc2ccccc2)n[nH]c1=O (stereo unspecified) | > 100 µM (inactive) | > 100 µM (inactive) | > 100 µM (inactive) | > 100 µM (inactive) | > 100 µM (inactive) | > 100 µM (inactive) | > 100 µM (inactive) | > 100 µM (inactive) | > 100 µM (inactive) | > 100 µM (inactive) | > 100 µM (inactive) | > 100 µM (inactive) | > 100 µM (inactive) | > 100 µM (inactive) | > 100 µM (inactive) | > 100 µM (inactive) | > 100 µM (inactive) | > 100 µM (inactive) | > 100 µM (inactive) | –
11 | COC(=O)c1sc(=S)sc1SCc1ccccc1CSc1sc(=S)sc1C(=O)OC | > 100 µM (inactive) | > 100 µM (inactive) | > 100 µM (inactive) | > 100 µM (inactive) | > 100 µM (inactive) | > 100 µM (inactive) | > 100 µM (inactive) | > 100 µM (inactive) | > 100 µM (inactive) | > 100 µM (inactive) | – | 58.9 µM (inactive) | – | 46.6 µM (inactive) | > 100 µM (inactive) | 77.1 µM (inactive) | 38.6 µM (inactive) | > 100 µM (inactive) | > 100 µM (inactive) | –
12 | O=C(N/N=C/c1ccc(Br)cc1)N/N=C/c1ccc(Br)cc1 | 4.66 µM (inactive) | 9.44 µM (inactive) | 3.53 µM (inactive) | 4.72 µM (inactive) | 17.1 µM (inactive) | 12.3 µM (inactive) | 7.43 µM (inactive) | 22.9 µM (inactive) | – | 5.6 µM (inactive) | 10.6 µM (inactive) | 6.19 µM (inactive) | – | 2.43 µM (inactive) | 3.52 µM (inactive) | 4.42 µM (inactive) | – | 7.13 µM (inactive) | 2.44 µM (inactive) | 13.2 µM (inactive)
13 | O=C1Cc2c(-c3cccs3)cc(-c3ccccc3)nc2-c2ccccc2N1 | 21.6 µM (inactive) | 43.4 µM (inactive) | 32.9 µM (inactive) | 13.7 µM (inactive) | 14 µM (inactive) | 78 µM (inactive) | 81.8 µM (inactive) | > 100 µM (inactive) | 24 µM (inactive) | 18.5 µM (inactive) | > 100 µM (inactive) | 47.4 µM (inactive) | 22.7 µM (inactive) | 24.4 µM (inactive) | 67.5 µM (inactive) | 47.9 µM (inactive) | 0.0441 µM (active) | > 100 µM (inactive) | > 100 µM (inactive) | –
14 | Cc1ncc([N+](=O)[O-])n1CCN(C)CCCCn1ccnc1[N+](=O)[O-] | > 100 µM (inactive) | > 100 µM (inactive) | > 100 µM (inactive) | – | > 100 µM (inactive) | > 100 µM (inactive) | > 100 µM (inactive) | > 100 µM (inactive) | > 100 µM (inactive) | – | > 100 µM (inactive) | > 100 µM (inactive) | > 100 µM (inactive) | > 100 µM (inactive) | > 100 µM (inactive) | > 100 µM (inactive) | > 100 µM (inactive) | > 100 µM (inactive) | > 100 µM (inactive) | > 100 µM (inactive)
15 | N=C(N)SC(c1ccccc1)c1ccccc1 | 13.5 µM (inactive) | 21.8 µM (inactive) | 12.2 µM (inactive) | 18.5 µM (inactive) | 16.2 µM (inactive) | 12.6 µM (inactive) | 33.8 µM (inactive) | 13 µM (inactive) | 16.6 µM (inactive) | 17.2 µM (inactive) | 10.2 µM (inactive) | 16.9 µM (inactive) | 20.8 µM (inactive) | 32.3 µM (inactive) | 16 µM (inactive) | 28.1 µM (inactive) | – | 16.8 µM (inactive) | 14.5 µM (inactive) | 17.1 µM (inactive)
